Test results taken from patent US9062048B2, “Cyclohexyl-azetidinyl antagonists of CCR2” (Janssen Pharmaceutica NV, priority 2010, dated 2015).

Target: CCR2 (Homo sapiens (Human), UniProt P41597)
Test: MCP-1 Receptor Binding Assay in THP-1 Cells;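 note: THP-1 is a human monocytic cell line, and nonspecific binding was defined with 1 µM unlabeled MCP-1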
Settings: 0.5 nM 125I labeled MCP-1, 2 hours at 30° C., read-out: Inhibition of MCP-1 Binding IC50 MCP1B

Sequence of CCR2 (P41597 whole entry): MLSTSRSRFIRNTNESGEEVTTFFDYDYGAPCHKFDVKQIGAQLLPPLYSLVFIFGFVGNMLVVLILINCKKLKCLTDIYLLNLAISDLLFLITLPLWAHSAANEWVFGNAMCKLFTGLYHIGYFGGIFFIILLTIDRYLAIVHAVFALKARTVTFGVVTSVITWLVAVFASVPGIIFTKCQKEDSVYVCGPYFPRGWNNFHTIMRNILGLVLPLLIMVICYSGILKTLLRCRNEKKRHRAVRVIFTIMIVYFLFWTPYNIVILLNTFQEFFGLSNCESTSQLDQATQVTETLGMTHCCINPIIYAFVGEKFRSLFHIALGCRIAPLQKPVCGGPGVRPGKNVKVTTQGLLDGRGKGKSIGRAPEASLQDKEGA

| SMILES | IC50 [nM] |
| --- | --- |
| CN1C(=O)CCC1[C@H]1CC[C@@H](N2CC(NC(=O)CNc3ncnc4ccc(C(F)(F)F)cc34)C2)CC1 (stereo partly drawn) [Example 39, N-(1-((1S,4s)-4-(1-methyl-5-oxopyrrolidin-2-yl)cyclohexyl)azetidin-3-yl)-2-((6-(trifluoromethyl)quinazolin-4-yl)amino)acetamide] | 231 |
| CC(=O)NC[C@H]1CC[C@@H](N2CC(NC(=O)CNc3ncnc4ccc(C(F)(F)F)cc34)C2)CC1 [Example 111, N-(1-((1s,4s)-4-(acetamidomethyl)cyclohexyl)azetidin-3-yl)-2-((6-(trifluoromethyl)quinazolin-4-yl)amino)acetamide] | 37 |
| O=C(CNc1ncnc2ccc(C(F)(F)F)cc12)NC1CN([C@H]2CC[C@@H](CCO)CC2)C1 [Example 108, N-(1-((1s,4s)-4-(2-hydroxyethyl)cyclohexyl)azetidin-3-yl)-2-((6-(trifluoromethyl)quinazolin-4-yl)amino)acetamide] | 19 |
| O=C(CNc1ncnc2ccc(C(F)(F)F)cc12)NC1CN([C@H]2CC[C@@H](C3CCCC3)CC2)C1 [Example 33, N-(1-((1s,4s)-4-cyclopentylcyclohexyl)azetidin-3-yl)-2-((6-(trifluoromethyl)quinazolin-4-yl)amino)acetamide] | 140 |
| CCC(OC)[C@H]1CC[C@@H](N2CC(NC(=O)CNc3ncnc4ccc(C(F)(F)F)cc34)C2)CC1 (stereo partly drawn) [Example 120, N-(1-((1s,4s)-4-(1-methoxypropyl)cyclohexyl)azetidin-3-yl)-2-((6-(trifluoromethyl)quinazolin-4-yl)amino)acetamide] | 83 |
| O=C(CNc1ncnc2ccc(C(F)(F)F)cc12)NC1CN([C@H]2CC[C@@H](N3CCCCO3)CC2)C1 [Example 52, N-(1-((1s,4s)-4-(1,2-oxazinan-2-yl)cyclohexyl)azetidin-3-yl)-2-((6-(trifluoromethyl)quinazolin-4-yl)amino)acetamide] | 64 |
| CCC(NC(=O)N(C)C)[C@H]1CC[C@@H](N2CC(NC(=O)CNc3ncnc4ccc(C(F)(F)F)cc34)C2)CC1 (stereo partly drawn) [Example 143, N-(1-((1R,4s)-4-((S)-1-(3,3-dimethylureido)propyl)cyclohexyl)azetidin-3-yl)-2-((6-(trifluoromethyl)quinazolin-4-yl)amino)acetamide] | 13800 |
| O=C(CNc1ncnc2ccc(C(F)(F)F)cc12)NC1CN(C2CCC([C@@H](O)C3CC3)CC2)C1 (single isomer, unassigned; (+)) [(+) 6] | 25 |
| Nc1ccc(C2CCC(N3CC(NC(=O)CNc4ncnc5ccc(C(F)(F)F)cc45)C3)CC2)nc1 (stereo not drawn) [Example 70, N-(1-(4-(5-aminopyridin-2-yl)cyclohexyl)azetidin-3-yl)-2-((6-(trifluoromethyl)quinazolin-4-yl)amino)acetamide] | 9 |
| O=C(CNc1ncnc2ccc(C(F)(F)F)cc12)NC1CN([C@H]2CC[C@@H](C(O)c3cncs3)CC2)C1 (stereo partly drawn) [Example 99, N-(1-((1R,4s)-4-(hydroxy(thiazol-5-yl)methyl)cyclohexyl)azetidin-3-yl)-2-((6-(trifluoromethyl)quinazolin-4-yl)amino)acetamide] | 19 |
| O=C(CNc1ncnc2ccc(C(F)(F)F)cc12)NC1CN([C@H]2CC[C@@H](C3CCCC(=O)N3)CC2)C1 (stereo partly drawn) [Example 13, N-(1-((1S,4s)-4-(6-oxopiperidin-2-yl)cyclohexyl)azetidin-3-yl)-2-((6-(trifluoromethyl)quinazolin-4-yl)amino)acetamide] | 10 |
| CCC([C@H]1CC[C@@H](N2CC(NC(=O)CNc3ncnc4ccc(C(F)(F)F)cc34)C2)CC1)N(C)C (stereo partly drawn) [Example 137, N-(1-((1S,4s)-4-((R)-1-(dimethylamino)propyl)cyclohexyl)azetidin-3-yl)-2-(6-(trifluoromethyl)quinazolin-4-ylamino)acetamide] | 5040 |
| O=C(CNc1ncnc2ccc(C(F)(F)F)cc12)NC1CN([C@H]2CC[C@@H](C3CCCCC3)CC2)C1 [Example 102, N-(1-((1s,4s)-1^˜1,1′-bi(cyclohexan)1-4-yl)azetidin-3-yl)-2-((6-(trifluoromethyl)quinazolin-4-yl)amino)acetamide] | 880 |
| CCC(O)[C@H]1CC[C@@H](N2CC(NC(=O)CNc3cnnc4ccc(C(F)(F)F)cc34)C2)CC1 (stereo partly drawn) [Example 152, N-(1-(4-(1-hydroxypropyl)cyclohexyl)azetidin-3-yl)-2-(6-(trifluoromethyl)cinnolin-4-ylamino)acetamide] | 530 |
| CN(C)C(=O)OC[C@H]1CC[C@@H](N2CC(NC(=O)CNc3ncnc4ccc(C(F)(F)F)cc34)C2)CC1 [Example 124, ((1s,4s)-4-(3-(2-((6-(trifluoromethyl)quinazolin-4-yl)amino)acetamido)azetidin-1-yl)cyclohexyl)methyl dimethylcarbamate] | 210 |
| CC(C)[C@H]1CC[C@@H](N2CC(NC(=O)CNc3ncnc4ccc(C(F)(F)F)cc34)C2)CC1 [Example 117, N-(1-((1s,4s)-4-isopropylcyclohexyl)azetidin-3-yl)-2-((6-(trifluoromethyl)quinazolin-4-yl)amino)acetamide] | 100 |
| O=C(CNc1ncnc2ccc(C(F)(F)F)cc12)N[C@H]1C[C@@H](N2CCC(O)(c3cncs3)CC2)C1 [Example 161, N-((1s,3s)-3-(4-hydroxy-4-(thiazol-5-yl)piperidin-1-yl)cyclobutyl)-2-((6-(trifluoromethyl)quinazolin-4-yl)amino)acetamide] | > 25000 |

| SMILES | IC50 [nM] |
| --- | --- |
| CCC(OC(C)=O)[C@H]1CC[C@@H](N2CC(NC(=O)CNc3ncnc4ccc(C(F)(F)F)cc34)C2)CC1 (stereo partly drawn) [Example 100, 1-((1s,4S)-4-(3-(2-((6-(trifluoromethyl)quinazolin-4-yl)amino)acetamido)azetidin-1-yl)cyclohexyl)propyl acetate] | 28 |
| CCC(NC(C)=O)[C@H]1CC[C@@H](N2CC(NC(=O)CNc3ncnc4ccc(C(F)(F)F)cc34)C2)CC1 (stereo partly drawn) [Example 138, N-(1-((1R,4s)-4-((S)-1-acetamidopropyl)cyclohexyl)azetidin-3-yl)-2-((6-(trifluoromethyl)quinazolin-4-yl)amino)acetamide] | 1900 |
| CCC(O)(CC)[C@H]1CC[C@@H](N2CC(NC(=O)CNc3ncnc4ccc(C(F)(F)F)cc34)C2)CC1 [Example 30, N-(1-((1s,4s)-4-(3-hydroxypentan-3-yl)cyclohexyl)azetidin-3-yl)-2-((6-(trifluoromethyl)quinazolin-4-yl)amino)acetamide] | 209 |
| CCN(C(C)=O)[C@H]1CC[C@@H](N2CC(NC(=O)CNc3ncnc4ccc(C(F)(F)F)cc34)C2)CC1 [Example 50] | 810 |
| O=C(CNc1ncnc2ccc(C(F)(F)F)cc12)NC1CN(C2CCC([C@@H](O)C3CC3)CC2)C1 (single isomer, unassigned; (-)) [(−) 6] | 8 |
| O=C(CNc1ncnc2ccc(C(F)(F)F)cc12)NC1CN([C@H]2CC[C@@H](N3CCCO3)CC2)C1 [Example 53, N-(1-((1s,4s)-4-(isoxazolidin-2-yl)cyclohexyl)azetidin-3-yl)-2-((6-(trifluoromethyl)quinazolin-4-yl)amino)acetamide] | 350 |
| N#Cc1cc(NCC(=O)NC2CN([C@H]3CC[C@@H](n4ccccc4=O)CC3)C2)c2cc(C(F)(F)F)ccc2n1 [Example 60, 2-((2-cyano-6-(trifluoromethyl)quinolin-4-yl)amino)-N-(1-((1s,4s)-4-(2-oxopyridin-1(2H)-yl)cyclohexyl)azetidin-3-yl)acetamide] | 40 |
| O=C(CNc1cc(C(F)(F)F)nc2ccc(C(F)(F)F)cc12)NC1CN([C@H]2CC[C@@H](n3ccccc3=O)CC2)C1 [Example 59, 2-((2,6-bis(trifluoromethyl)quinolin-4-yl)amino)-N-(1-((1s,4s)-4-(2-oxopyridin-1(2H)-yl)cyclohexyl)azetidin-3-yl)acetamide] | 130 |
| CC(C)C(O)[C@H]1CC[C@@H](N2CC(NC(=O)CNc3ncnc4ccc(C(F)(F)F)cc34)C2)CC1 (stereo partly drawn) [Example 7, N-(1-((1S,4s)-4-(1-hydroxy-2-methylpropyl)cyclohexyl)azetidin-3-yl)-2-((6-(trifluoromethyl)quinazolin-4-yl)amino)acetamide] | 9 |
| CC(C)C(O)[C@H]1CC[C@@H](N2CC(NC(=O)CNc3cnnc4ccc(C(F)(F)F)cc34)C2)CC1 (stereo partly drawn) [Example 157, N-(1-((1R,4s)-4-((S)-1-hydroxy-2-methylpropyl)cyclohexyl)azetidin-3-yl)-2-((6-(trifluoromethyl)cinnolin-4-yl)amino)acetamide] | 530 |
| CCC(N)[C@H]1CC[C@@H](N2CC(NC(=O)CNc3ncnc4ccc(C(F)(F)F)cc34)C2)CC1 (stereo partly drawn) [Example 136, N-(1-((1R,4s)-4-((S)-1-aminopropyl)cyclohexyl)azetidin-3-yl)-2-((6-(trifluoromethyl)quinazolin-4-yl)amino)acetamide] | 40 |
| CC(C)[C@]1(O)CC[C@H](N2CC(NC(=O)CNc3ncnc4ccc(C(F)(F)F)cc34)C2)CC1 [Example 37, N-(1-((1r,4r)-4-hydroxy-4-isopropylcyclohexyl)azetidin-3-yl)-2-((6-(trifluoromethyl)quinazolin-4-yl)amino)acetamide] | 235 |
| CON(C)C(=O)C1CCC(N2CC(NC(=O)CNc3ncnc4ccc(C(F)(F)F)cc34)C2)CC1 (stereo not drawn) [Example 126] | 91 |
| O=C(CNc1ncnc2ccc(C(F)(F)F)cc12)NC1CN([C@H]2CC[C@@H](C3CCCCO3)CC2)C1 (stereo partly drawn) [Example 14, N-(1-((1S,4s)-4-(tetrahydro-2H-pyran-2-yl)cyclohexyl)azetidin-3-yl)-2-((6-(trifluoromethyl)quinazolin-4-yl)amino)acetamide] | 15 |
| CC(C)C(=O)N(C)[C@H]1CC[C@@H](N2CC(NC(=O)CNc3ncnc4ccc(C(F)(F)F)cc34)C2)CC1 [Example 43] | 510 |
| Cc1ccc([C@]2(O)CC[C@H](N3CC(NC(=O)CNc4ncnc5ccc(C(F)(F)F)cc45)C3)CC2)cn1 [Example 75, N-(1-((1r,4r)-4-hydroxy-4-(6-methylpyridin-3-yl)cyclohexyl)azetidin-3-yl)-2-((6-(trifluoromethyl)quinazolin-4-yl)amino)acetamide] | 11 |
